{
  "source": "patent US7271239B2",
  "about": "“D-isomers of antimicrobial peptide” (The Research Foundation of State University of New York, priority 2004, dated 2007)",
  "key": {"C. albicans DIS": {"system": "C. albicans DIS", "test": "Killing assay in whole human saliva", "protocol": "FIG. 1. Candidacidal activity of MUC7 12-mer-L, MUC7 12-mer-D, Hsn5 12-mer, and Magainin-II in whole human saliva (WHS). Each peptide at final concentration of 25, 50, and 100 μM was incubated with C. albicans (DIS isolate at 1×10^5 cells/ml) and 20 μl of clarified or unclarified saliva (SL; hatched bars), saliva containing Protease inhibitor cocktail (PIC) (SL+PIC; filled bars), or saliva containing ethylenediamine tetraacetic acid (EDTA) (SL+EDTA; clear bars) at 37° C. for 1.5 h. At the end of incubation, the samples were diluted 20-fold and aliquots plated on SDA. The colony forming units (CFU) were counted after 24 h of incubation. The loss of C. albicans viability was determined by the equation (1−CFU of the test group/CFU of the control group)×100%. The data represent three individual trials, and in each trial the sample was duplicated; the error bars represent standard deviation.\nFIG. 4. […] Stimulated whole saliva was collected from 5 healthy subjects. Peptides (50 μM) were incubated with C. albicans cells (1×10^5) in the each individual saliva containing PIC (SL+PIC) at 37° C. for 1.5 hr and the loss of the cell viability was determined. Values represent the mean±S.D. (n=5).\nKilling assays in saliva. Unclarified saliva (unstimulated whole saliva) was collected from five healthy individuals during the fasting. Clarified saliva was obtained by passing the unclarified saliva through the 0.2 μm pore size sterile syringe filter (VWR scientific products, West Chester, Pa.). Candidacidal activity assays were performed as described previously (4), except the phosphate buffer was substituted with saliva. […] Saliva without peptides was a blank control. After incubation at 37° C. for 1.5 h, the reactions were diluted 20-fold in PB and aliquots (50 μl, ˜120 cells) of each sample were plated on SDA. The plates were incubated at 37° C. for 1 day aerobically and the number of colony-forming units (CFUs) was counted. Percentage of killing was calculated as (1−amount of viable cells in the test group)/(amount of viable cells in the control group)×100%."}, "HOK-16B cells": {"system": "HOK-16B cells", "test": "MTS cell viability assay", "format": "cell-based, human", "details": "200 μM", "protocol": "FIG. 6. Effect of peptides on viability of (A) HOK-16B cells and (B) KB cells. The toxic effect of the compounds on the cells was determined by calorimetric assay using a CellTiter 96 AQueous One Solution cell proliferation assay (MTS) kit, as described in the text. Briefly, the cells were grown to about 80% confluence, harvested, washed, resuspended in KGM, and dispensed into a 96-well microtiter plate. They were then exposed to different concentrations of peptides or amphotericin B at 37° C. and 5% CO2 for 1.5 h. MTS agent was then added to each well, and the cells were further incubated for 4 h. Absorbance at 490 nm was then measured using a microplate reader. MTS reduction is an indication of cell viability. The viability is expressed as relative absorbance (percentage of no-agent control). Data represent the average and standard deviation of results from two independent experiments.\nCell culture. The HOK-16B cell line (originated from primary normal human keratinocytes) was kindly provided by No-Hee Park, UCLA School of Dentistry. The KB cell line was obtained from the American Type Culture Collection (CLL-17). […]\nMTS cell viability assay. The toxic effect of the compounds on the cells was determined by calorimetric assay using a CellTiter 96 AQueous One Solution cell proliferation assay (MTS) kit (Promega, Wis.). […] Absorbance at 490 nm was then measured using a microplate reader. […]"}, "[1]": {"system": "C. glabrata 65C (azole-resistant clinical isolate)", "format": "cell-based", "details": "clarified saliva", "description": "Killing assays in saliva. […] Saliva without peptides was a blank control.\nActivity of peptides in saliva against different candida strains. The in vitro candidacidal activities of MUC7 12-mer-L and D, Hsn5 12-mer, and Magainin-II against four Candida strains in clarified saliva are shown in Table 1. The data are presented as percent loss of cell viability compared to non-treated control. The following observations were made. […] In the presence of PIC, the activity values of MUC7 12-mer-L and of Magainin-II rose close to a 100% for all strains, but not that of Hsn5 peptide, which achieved the similar activity only against the C. albicans (ATCC strain). The activities against the other strains were much lower, in particular against both strains of C. glabrata (30-40%). […] This was true especially in saliva without PIC."}, "Erythrocytes": {"system": "Erythrocytes", "details": "determined previously (5), cited from earlier work"}},
  "note": "Read-outs that look alike come from different tables or passages of the source. Where no end group is shown, it is not given here.",
  "data": [
    {"sequence": "GIGKFLHSAKKFGKAFVGEIMNS [Magainin-II]", "values": [
      {"measurement": "candidacidal activity (killing)", "setting": "C. albicans DIS; 100 μM, clarified saliva, no PIC/EDTA", "value": 0, "unit": "%"},
      {"measurement": "killing", "setting": "C. albicans DIS; 100 μM, unclarified saliva, no PIC/EDTA", "value": 0, "unit": "%"},
      {"measurement": "percent loss of cell viability", "setting": "C. albicans DIS; clarified saliva, PIC+ (Table 1)", "value": "94.42^± %"},
      {"measurement": "percent loss of cell viability", "setting": "C. albicans DIS; clarified saliva, PIC− (Table 1)", "value": 0.00, "unit": "%"},
      {"measurement": "loss of HOK-16B cell viability", "setting": "HOK-16B cells", "value": "about 30%"},
      {"measurement": "percent loss of cell viability", "setting": "[1]; PIC+", "value": "99.80^± %"},
      {"measurement": "percent loss of cell viability", "setting": "[1]; PIC−", "value": 0.00, "unit": "%"},
      {"measurement": "hemolysis", "setting": "Erythrocytes; IGP buffer", "value": 92, "unit": "%"},
      {"measurement": "hemolysis", "setting": "Erythrocytes; PBS", "value": 0, "unit": "%"}
    ]}
  ]
}
